Bridge positions count the residues as written; N and C are the ends. Square brackets hold non-standard residues; d marks the D form. Peptide text beside a SMILES is read from it. R8 = C=CCCCCCC[C@@](C)(N)C(=O)O; S5 = C=CCCC[C@](C)(N)C(=O)O
Legend:
[1] = CD spectroscopy, percentage of helicity; format: physicochemical; settings: CD at 222 nm, 10 mM phosphate buffer pH 7.5, 50 μM peptide, 25° C.
Experimental: The secondary structure of the peptides was then characterized by circular dichroism (DC) as described below.
The circular dichroism spectra were acquired on a Jasco J-810 and on a Chirascan spectropolarimeter. The samples were prepared in 10 mM phosphate buffer, pH 7.5, at a peptide concentration of 50 μM. Data were recorded at 25° C. by stepscan from 180 nm to 260 nm in a 0.1 cm pathlength quartz cell using 0.2 nm wavelength increments, 1 nm bandwidth and a response time of 0.5 sec. Each spectrum was an average of three measurements and was subtracted from buffer baseline. The data were converted to per residue molar ellipticity units [θ] (deg·cm2·dmol−1·residue−1) and smoothed using the Igor software. The percentage of helicity was calculated as it follows:
[formula] whereby CD222=molar ellipticity at 222 nm in [mdeg], N=number of amino acids in the peptide and C=peptide molar concentration [mol/l].

RSV-mCherry = format: cell-based, HRSV
Experimental: The inhibitory activity of the peptides of the invention was assessed in HEp-2 cells as described below:
A mCherry-expressing virus recently developed (Rameix-Welti et al., 2014, Nat. Commun., 5:5104) was used to avoid the cumbersome manipulations required with the GFP-expressing virus.
HEp-2 cells were seeded at 5×10^4 cells per well in 96 wells plate the day before the infection. Peptides were 2-fold serially diluted in DMSO (11 dilutions), then further diluted in MEM medium and pre-incubated for 15-20 minutes with 0.2 MOI of RSV-mCherry (Rameix-Welti et al., 2014, supra). Following the washing of Hep-2 cells with MEM without phenol red medium, the cells were incubated with the virus/peptide mixtures for a period of 1 h30-2 h. The cells were washed and further incubated in MEM media containing fetal bovine serum and the same concentration of peptide that was used during the infection step. Plates were incubated 48 h at 37° C. and the mCherry fluorescence was measured using a spectrofluorometer (Tecan infinite M200PRO) with excitation and emission wavelengths of 580 and 620 nm, respectively (expressed in relative fluorescence units RFU). Non-infected HEp-2 cells were used as standards for fluorescence background levels. Each experiment was performed in duplicate and repeated at least twice.

[2] = system: 5HB, a recombinant 5 helix bundle protein containing 3 HR1 domains covalently attached to 2 HR2 domains; settings: 50 nM 5HB, 2 nM FITC-T108
Experimental: The fluorescence polarization assay was performed in 384-well plates using a Spectramax Paradigm (Molecular devices), using an excitation and emission wavelength of 485 nm and 535 nm, respectively. The acquisition time was of 700 ms and the read height was of 1 mm.

circular dichroism = settings: 10 mM phosphate; pH 7.5; 25 °C; 50 uM

SMILES | % helicity [1] | EC50 (RSV-mCherry; HEp-2 cells, 0.2 MOI RSV-mCherry, 48 h) | inhibitory activity in HEp-2 cells (RSV-mCherry; RSV-mCherry) | block of the increase of FP / activity in the biochemical 5HB assay [2] | helicity (circular dichroism)
CC[C@H](C)[C@@H]1NC(=O)[C@H](Cc2ccccc2)NC(=O)[C@@](C)(NC(=O)[C@H](CC(C)C)NC(=O)[C@H](CO)NC(=O)[C@H](CCC(N)=O)NC(=O)[C@H](CCC(=O)O)NC(C)=O)CCCC=CCCC[C@@](C)(C(=O)N[C@@H](CO)C(=O)N[C@@H](CC(=O)O)C(=O)N[C@@H](CCC(=O)O)C(=O)N[C@@H](CC(C)C)C(=O)N[C@@H](CC(C)C)C(=O)N[C@@H](Cc2c[nH]cn2)C(=O)N[C@@H](CC(N)=O)C(=O)N[C@H](C(N)=O)C(C)C)NC(=O)[C@H](CCCNC(=N)N)NC1=O [Peptide 3a, EQSL X504 FIR X508 SDELLHNV, reference compound] (Ac-EQSL[S5]FIR[S5]SDELLHNV-NH2; staple 5-9) | 33.9% | > 25 µM | inactive | reasonable activity | 
CC[C@H](C)[C@H](NC(=O)[C@H](CCCCN)NC(=O)[C@H](CCC(=O)O)NC(C)=O)C(=O)N[C@@H](CC(N)=O)C(=O)N[C@@H](CCC(N)=O)C(=O)N[C@@H](CO)C(=O)N[C@@H](CC(C)C)C(=O)N[C@]1(C)CCCCCCC=CCCC[C@@](C)(C(=O)N[C@@H](CC(C)C)C(=O)N[C@@H](CC(C)C)C(=O)N[C@@H](Cc2c[nH]cn2)C(=O)N[C@@H](CC(N)=O)C(=O)N[C@H](C(N)=O)C(C)C)NC(=O)[C@H](CC(=O)O)NC(=O)[C@H](CO)NC(=O)[C@H](CCCCN)NC(=O)[C@H](CCCNC(=N)N)NC(=O)[C@H]([C@@H](C)CC)NC(=O)[C@H](Cc2ccccc2)NC1=O [Peptide 4e, EKINQSL 8504 FIRKSD X511 LLHNV, reference compound] (Ac-EKINQSL[R8]FIRKSD[S5]LLHNV-NH2; staple 8-15) | 23.3% |  |  | reasonable activity | 23.3%

From patent US11299518B2, “Fusion respiratory syncytial virus inhibitors and use thereof” (priority 2016, dated 2022)
